Source: patent publication US20070213291A1, “Therapeutically useful synthetic oligonucleotides” (priority 1999, published 2007)
Values joined by “and” are separate entries in the source; they are usually repeats but may differ in a detail not shown here. Identical values can stand only once.

Assays:
chimpanzee PBMCs = test: Cytokine production by chimpanzee PBMC (ELISA); type: cell-based; settings: PBMC of 4 healthy chimpanzees, 100 μg/ml, 48 h
Procedure: (§1) Unless stated otherwise, 1×10^6 cells were incubated with 100 μg/ml of each of the sequences tested for 48 h at 37° C. in 5% CO2. Production of cytokines IL-6, IL-10, IL-12, IL-1beta and TNF-alpha was determined in pg/ml in 100 μl of culture supernatant using the appropriate commercial ELISA (BioSource, Camarillo Calif.). The IL-12 ELISA measures both IL-12 p70 complex and free p40 subunit. Results are expressed as the “fold” (×) increase in cytokine production by treated cells compared to control cells.
PBMCs were isolated from 4 healthy chimpanzees as in Example 35. Chimpanzee PBMCs were incubated with 6 base GT, AGT, CGT, AG, CG and GG sequences and production of the cytokines IL-10, IL-12 and TNF-alpha was determined (Table 41).

[1] = tested on: THP-1 human acute monocytic leukemia cells; test: Inhibition of THP-1 cell proliferation (MTT); type: cell-based; settings: 100 μg/ml, 48 h, 1.6×10^6 cells/ml
Procedure: (§2) Cells were seeded in 6 (1 ml/well), 24 (0.5 ml/well) or 96 (0.1 ml/well) well flat-bottom microplates and were maintained at 37° C. in a 5% CO2 atmosphere. Unless stated otherwise, 2.5×10^5 cells/ml were incubated with 0 μg/ml (control) and 100 μg/ml (treated) of 2 to 45 base sequences containing A, C, G and T for 48 h.
(§3) Cell proliferation was measured using dimethylthiazol-diphenyl-tetrazolium (MTT) reduction (Mosman et al. J. Immunol. Methods 65:55, 1983). MTT was measured at a wavelength of 570 nm using a multiplate spectrophotometer reader (ELX800, Bio-TEK Instruments Inc., Winooski, Vt.).
THP-1 acute monocytic leukemia cells are a p53 null human suspension tumor model. THP-1 cells (1.6×10^6 cells/ml) were incubated with 6 base GT sequences (Table 10).

[2] = tested on: HL-60 human promyelocytic leukemia cells; test: Inhibition of HL-60 cell proliferation (MTT); type: cell-based; settings: 100 μg/ml, 48 h
Procedure: as §2, §3
HL-60 promyelocytic leukemia cells are a p53 mutated human suspension tumor model. HL-60 cells were incubated with 6 base GT sequences (Table 6).

[3] = tested on: LNCaP human prostate cancer cells; test: Inhibition of LNCaP cell proliferation (MTT); type: cell-based; settings: 100 μg/ml, 48 h, 5×10^5 cells/ml
Procedure: as §2, §3
LNCaP prostate cancer cells are a TGF-beta 1 receptor negative, […], metastatic human solid tumor model. LNCaP cells (5×10^5 cells/ml) were incubated with 6 base GT sequences (Table 9).

rhesus monkey PBMCs = test: Cytokine production by rhesus monkey PBMC (ELISA); type: cell-based; settings: PBMC of 4 healthy rhesus monkeys, 100 μg/ml, 48 h
Procedure: as §1
PBMCs were isolated from 4 healthy rhesus monkeys as in Example 35. PBMCs were incubated with 6 base GT, AGT, CGT, AG, CG ands GG sequences and production of the cytokines IL-6, IL-12 and TNF-alpha was determined (Table 42).

[4] = tested on: PC-3 human prostate cancer cells; test: Inhibition of PC-3 cell proliferation (MTT); type: cell-based; settings: 100 μg/ml, 48 h, 5×10^5 cells/ml
Procedure: as §2, §3
PC-3 prostate cancer cells are a p53 mutated, androgen-independent human solid tumor model. PC-3 cells (5×10^5 cells/ml) were incubated with 3 and 6 base GT sequences (Table 8).

[5] = tested on: MCF-7 human breast cancer cells; test: Inhibition of MCF-7 cell proliferation (MTT); type: cell-based; settings: 100 μg/ml, 48 h, 5×10^5 cells/ml
Procedure: as §2, §3
MCF-7 human breast cancer cells are a caspase 3 negative, estrogen-dependent human solid tumor model. MCF-7 cells (5×10^5 cells/ml) were incubated with 3 and 6 base GT sequences (Table 7).

[6] = tested on: Jurkat human leukemia T cells; test: Inhibition of Jurkat human leukemia T cell proliferation (MTT reduction); type: cell-based; settings: 100 μg/ml sequence, 48 h, 2.5×10^5 cells/ml
How it was run: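 Jurkat cells at 2.5×10^5 cells/ml exposed to 100 μg/ml of 2–45-base A/C/G/T sequences (0 μg/ml control) for 48 h, 37° C, 5% CO2. Viability by MTT reduction read at 570 nm.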

[7] = tested on: A20 murine B leukemia cells; test: Inhibition of A20 cell proliferation (MTT); type: cell-based; settings: 100 μg/ml, 48 h
Procedure: as §2, §3
A20 murine leukemia B cells are a suspension tumor model. A20 murine leukemia B cells were incubated with 6 base GT sequences (Table 19).

[8] = tested on: human peripheral blood mononuclear cells; test: Cytokine production by human PBMC (ELISA); type: cell-based; settings: PBMC of 7 healthy humans, 100 μg/ml, 48 h
How it was run: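 PBMC from 7 healthy donors, Ficoll-isolated; 1×10^6 cells incubated with 100 μg/ml oligonucleotide sequence for 48 h at 37 °C, 5% CO2. IL-1beta, IL-6, IL-10, IL-12 (p70 plus free p40) and TNF-alpha measured by ELISA in supernatant, expressed as fold increase over control cells.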

[9] = tested on: THP-1 human acute monocytic leukemia cells; test: Cytokine production by THP-1 cells (ELISA); type: cell-based; settings: THP-1, 1×10^6 cells, 100 μg/ml, 48 h; for ↑ IL-12 (fold increase treated vs control cells): p70 complex and free p40
How it was run: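 1×10^6 cells exposed to 100 μg/ml of each oligonucleotide sequence for 48 h at 37° C in 5% CO2, unless stated otherwise. Cytokines quantified in culture supernatant by ELISA, IL-12 assay detecting both p70 and free p40; values are fold increase over untreated control cells.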

caspase 3 and caspase 7 = test: Caspase 3 and caspase 7 activation by peptide-sequence constructs in Jurkat cells; type: cell-based, human; settings: 72 h, present-tense example
Procedure: Reactive carboxylate and reactive amine groups are deprotected subsequent to conjugation,
To determine caspase activation, control and treated cells are washed, fixed, permeabilized and incubated with an FITC-conjugated antibody that recognizes the active form of the caspase (Pharmingen, San Diego, Calif.) using the conditions recommended by the manufacturer. Fluorescence associated with active caspase 3 is analyzed by flow cytometry on a FACSCALIBUR using the program CellQUEST (Becton Dickinson). Alternatively, caspase activation is determined colorimetrically using an assay based on the cleavage of a caspase-specific peptide conjugated to the color reporter molecule p-nitroanilide, which can be quantitated spectrophotometrically at a wavelength of 405 nm.
Jurkat human leukemia T cells are incubated for 72 h with NH2—YVAD-CO-GG(GT)GG, NH2-DEVD-CO-GG(GT)GG, NH2—EGD-COO-GG(GT)GG, NH2-YVAD-CO-[…], NH2-DVED-CO-[…] and NH2—IEGD-CO-[…]. Caspase 3 and caspase 7 activation are determined.

[10] = tested on: D-17 canine osteosarcoma cells; test: Inhibition of D-17 cell proliferation (MTT); type: cell-based; settings: 100 μg/ml, 48 h, 5×10^5 cells/ml
Procedure: as §2, §3
(§4) D-17 canine osteosarcoma cells and CF-51 canine mammary gland cancer cells are solid tumor models. D-17 canine osteosarcoma cells (5×10^5 cells/ml) (Table 20) and CF-51 canine mammary gland cancer cells (5×10^5 cells/ml) (Table 21) were incubated with 6, 9, 17, 27 and 33 base GT-sequences and with a 15 base ACG sequence.

[11] = tested on: CF-51 canine mammary gland cancer cells; test: Inhibition of CF-51 cell proliferation (MTT); type: cell-based; settings: 100 μg/ml, 48 h, 5×10^5 cells/ml
Procedure: as §2, §3, §4

| Substance | IL-10 fold increase: mean +/− SD (chimpanzee PBMCs) | IL-12 fold increase: mean +/− SD (chimpanzee PBMCs) | TNF-alpha fold increase: mean +/− SD (chimpanzee PBMCs) | % INHIBITION of THP-1 human acute monocytic leukemia cell proliferation [1] [%] | % INHIBITION of HL-60 human promyelocytic leukemia cell proliferation [2] [%] | % INHIBITION of LNCaP human prostate cancer cell proliferation [3] [%] | IL-10 fold increase: mean +/− SD (rhesus monkey PBMCs) | IL-12 fold increase: mean +/− SD (rhesus monkey PBMCs) | TNF-alpha fold increase: mean +/− SD (rhesus monkey PBMCs) | % INHIBITION of PC-3 human prostate cancer cell proliferation [4] [%] | % INHIBITION of MCF-7 human breast cancer cell proliferation [5] [%] | % INHIBITION of Jurkat human leukemia T cell proliferation [6] | % INHIBITION of A20 murine B leukemia cell proliferation [7] [%] | IL-1 beta fold increase: mean +/− SD [8] | IL-6 fold increase: mean +/− SD [8] | IL-10 fold increase: mean +/− SD [8] | IL-12 fold increase: mean +/− SD [8] | ↑ IL-6 (fold increase treated vs control cells) [9] [x] | ↑ IL-12 (fold increase treated vs control cells) [9] [x] | processing of inactive caspase 3 and caspase 7 to active forms (caspase 3 and caspase 7) | further results |
| --- | --- | --- | --- | --- | --- | --- | --- | --- | --- | --- | --- | --- | --- | --- | --- | --- | --- | --- | --- | --- | --- |
| GGTGGG [SEQ ID NO:24] | 2.9 +/− 1.5 fold increase | 14.3 +/− 9.1 fold increase | 11.9 +/− 7.0 fold increase | 6 | 18 | 17 | 1.0 +/− 0.1 fold increase | 11.2 +/− 4.8 fold increase | 14.5 +/− 5.4 fold increase | 26 | 41 | 48% | 9 | 0.9 +/− 0.1 fold increase | 15.9 +/− 14.9 fold increase | 2.4 +/− 2.9 fold increase | 2.3 +/− 1.6 fold increase | 6.9 | 3.7 |  |  |
| TTTGTT [SEQ ID NO:23] | 1.5 +/− 0.6 fold increase | 12.9 +/− 8.2 fold increase | 9.0 +/− 5.5 fold increase | 8 | 13 | 14 | 1.0 +/− 0.1 fold increase | 6.7 +/− 3.6 fold increase | 4.4 +/− 3.8 fold increase | 14 | 7 | 31% | 5 | 1.0 +/− 0.1 fold increase | 11.8 +/− 9.0 fold increase | 1.0 +/− 0.1 fold increase | 1.1 +/− 0.3 fold increase | 4.9 | 3.5 |  |  |
| NH2-YVAD-CO-AACCACAAGCCCAAC [NH2—YVAD-CO-ACG] |  |  |  |  |  |  |  |  |  |  |  |  |  |  |  |  |  |  |  | do not induce processing of inactive pro-caspase 3 to active caspase 3 or of inactive caspase 7 to active caspase 7 |  |
| TGTGTGTGTGTGTGTGTG (unmodified DNA) [SEQ ID NO:17] |  |  |  |  |  |  |  |  |  |  |  | 56% |  |  |  |  |  | 2.2 |  |  | % INHIBITION of D-17 canine osteosarcoma cell proliferation [10]: 8%; % INHIBITION of CF-51 canine mammary gland cancer cell proliferation [11]: 8% |
| NH2—IEGD-CO-AACCACAAGCCCAAC [NH2—IEGD-CO-ACG] |  |  |  |  |  |  |  |  |  |  |  |  |  |  |  |  |  |  |  | do not induce processing of inactive pro-caspase 3 to active caspase 3 or of inactive caspase 7 to active caspase 7 |  |
| NH2—YVAD-CO-GG(GT)GG [NH2—YVAD-CO-GT] |  |  |  |  |  |  |  |  |  |  |  |  |  |  |  |  |  |  |  | induce processing of inactive caspase 3 to active caspase 3 and of inactive caspase 7 to active caspase 7 |  |
| NH2-DEVD-CO-GG(GT)GG [NH2-DEVD-CO-GT] |  |  |  |  |  |  |  |  |  |  |  |  |  |  |  |  |  |  |  | induce processing of inactive caspase 3 to active caspase 3 and of inactive caspase 7 to active caspase 7 |  |
| NH2-DVED-CO-AACCACAAGCCCAAC [NH2-DVED-CO-ACG] |  |  |  |  |  |  |  |  |  |  |  |  |  |  |  |  |  |  |  | do not induce processing of inactive pro-caspase 3 to active caspase 3 or of inactive caspase 7 to active caspase 7 |  |
| NH2—EGD-COO-GG(GT)GG [NH2—IEGD-COO-GT] |  |  |  |  |  |  |  |  |  |  |  |  |  |  |  |  |  |  |  | induce processing of inactive caspase 3 to active caspase 3 and of inactive caspase 7 to active caspase 7 |  |
| TGTGTG [SEQ ID NO:9] | 2.3 +/− 1.3 fold increase | 13.5 +/− 8.9 fold increase | 11.3 +/− 6.9 fold increase | 0 | 7 | −9 | 1.1 +/− 0.2 fold increase | 10.6 +/− 4.2 fold increase | 14.3 +/− 6.3 fold increase | 16 | 6 | 37% and 36% | 22 | 1.2 +/− 0.4 fold increase | 8.3 +/− 12.8 fold increase | 1.0 +/− 0.1 fold increase | 2.7 +/− 2.6 fold increase | 4.0 | 1.8 |  |  |
